The subject of this assay is acetaminophen-induced hepatic impairment. Nature of the assay: Effect on acetaminophen-induced hepatic impairment. Format: in vivo, rat. The conditions noted are these: Male SD rats; for inhibitory effect on acetaminophen-induced hepatic impairment (antihepatopathic effect, in words) / inhibition at 500 µmol/kg / s-GOT % inhibition / s-GPT % inhibition: 0.5 mmole/kg orally; for inhibitory effect on acetaminophen-induced hepatic impairment (antihepatopathic effect, in words): acetaminophen 300 mg/kg i.p.; for s-GOT / s-GPT: test substance 0.5 mmole/kg orally, one hour later acetaminophen 300 mg/kg i.p., mean ± S.E., n = 7-10; for s-GOT / s-GPT / inhibition at 500 µmol/kg / s-GOT % inhibition / s-GPT % inhibition: serum after 24 hours; for inhibition at 500 µmol/kg: Rattus norvegicus; for inhibition at 500 µmol/kg / s-GOT % inhibition / s-GPT % inhibition: one hour before acetaminophen 300 mg/kg i.p., versus physiological saline control. The method, then: Method; Male SD rats (body weights ca. 180 g) purchased form Japan SLC were used. The test substance was orally administered (0.5 mmole/kg) and one hour later 300 mg/kg of acetaminophen was intraperitoneally administered. After 24 hours, blood was drawn from the abdominal aorta and the serum was separated. Using this serum, s-GOT and GPT were determined.

Like-named read-outs stand apart in the source and are kept apart here.

Turning to `CC(CSC[C@H](NC(=O)CC[C@H](N)C(=O)O)C(=O)NCC(=O)O)C(=O)O` (stereo partly drawn) [compound 1, S-(2-carboxypropyl)glutathione], the “inhibitory effect on acetaminophen-induced hepatic impairment (antihepatopathic effect, in words)” value (“inhibitory effect” for short) was “significant antihepatopathic effects”; the s-GOT is 1259 ± 424 IU/l; the s-GPT turned out to be 337 ± 117 IU/l. For the same molecule, the inhibition at 500 µmol/kg (read-out: s-GOT % inhibition) was 76.1%. Besides, the inhibition at 500 µmol/kg (read-out: s-GPT % inhibition) was 83.6%.
For `CCOC(=O)C(C)CSC[C@H](NC(=O)CC[C@H](N)C(=O)O)C(=O)NCC(=O)O` (stereo partly drawn) [compound 2, S-(2-carbethoxypropyl)glutathione], the “inhibitory effect” value was “significant antihepatopathic effects”; the s-GOT worked out at 841 ± 354 IU/l; the s-GPT is 195 ± 81 IU/l. In addition, where the note is “read-out: s-GOT % inhibition”, the inhibition at 500 µmol/kg came out at 84%. Also, the inhibition at 500 µmol/kg (read-out: s-GPT % inhibition) turned out to be 90.5%.
For `N[C@@H](CCC(=O)N[C@@H](CSCCC(=O)O)C(=O)NCC(=O)O)C(=O)O` [compound 3, S-(2-Carboxyethyl)glutathione] the same measures were “significant antihepatopathic effects”, 1968 ± 626 IU/l, 530 ± 180 IU/l, 62.6% and 74.3%.
The like results for `CCOC(=O)CCSC[C@H](NC(=O)CC[C@H](N)C(=O)O)C(=O)NCC(=O)O` [compound 4, S-(2-Carbethoxyethyl)glutathione] were, in that order, “significant antihepatopathic effects”, 1935 ± 530 IU/l, 598 ± 226 IU/l, 63.3% and 71%.
`CC(C)COC(=O)C(C)CSC[C@H](NC(=O)CC[C@H](N)C(=O)O)C(=O)NCC(=O)O` (stereo partly drawn) [compound 5, S-(2-Methyl-2-carboisobutoxyethyl)glutathione] yielded a s-GOT % inhibition of 43.6%, a s-GPT % inhibition of 32.8%, a s-GOT of 2972 ± 803 IU/l and a s-GPT of 1384 ± 417 IU/l.
For the molecule `CC(CSC[C@H](NC(=O)CC[C@H](N)C(=O)O)C(=O)NCC(=O)O)C(=O)OCc1ccccc1` (stereo partly drawn) [compound 6, S-[2-Methyl-2-carbobenzoxyethyl]glutathione], the s-GOT is reported as 2968 ± 824 IU/l and the s-GPT is 1384 ± 421 IU/l. The inhibition at 500 µmol/kg (read-out: s-GOT % inhibition) is 43.7%. For the same molecule, for the setting “read-out: s-GPT % inhibition”, the inhibition at 500 µmol/kg was 32.8%.
As to `CCOC(=O)C(C)CSCC(NC(=O)CCC(N)C(=O)O)C(=O)NCC(=O)OC(C)C` (stereo not drawn) [compound 7, S-(2-Methyl-2-carbethoxyethyl)glutathione isopropyl ester], the s-GOT % inhibition is on record as 70.2%; the s-GPT % inhibition stood at 74.3%; the “inhibitory effect” value was “significant antihepatopathic effects”; the s-GOT turned out to be 1570 ± 511 IU/l. For the same molecule, the s-GPT stood at 529 ± 168 IU/l.
For `CC(C)COC(=O)C(C)CSCC(NC(=O)CCC(N)C(=O)O)C(=O)NCC(=O)OC(C)C` (stereo not drawn) [compound 8, S-(2-Methyl-2-carbiosobutoxyethyl)glutathione isopropyl ester] the same measures were 96.9%, 97.5%, “significant antihepatopathic effects”, 163 ± 89 IU/l and 52 ± 29 IU/l.
With `CC(C)OC(=O)CC(C)SC[C@H](NC(=O)CC[C@H](N)C(=O)O)C(=O)NCC(=O)O` (stereo partly drawn) [compound 9, S-(1-Methyl-2-carboisopropoxyethyl)glutathione], the “inhibitory effect” value is reported as “significant antihepatopathic effects”; the s-GOT is on record as 171 ± 71 IU/l; the s-GPT came out at 43 ± 21 IU/l. Besides, the inhibition at 500 µmol/kg (read-out: s-GOT % inhibition) stood at 96.8%. The inhibition at 500 µmol/kg (read-out: s-GPT % inhibition) stood at 97.9%.

As a reminder, the inhibition is the share of the control response that was lost under treatment.

These data come from patent US5232913A, “Antihepatopathic composition” (Senju Pharmaceutical Co., Ltd., priority 1990, dated 1993).
